# Key:
# Format in all cases: cell-based, hepatitis B virus
# HBV [1] = assay: Extracellular HBV DNA secreted by HBV baculovirus infected HepG2 cells (Southern blot, densitometry)
# Procedure: (§1) (T). […] Relaxed circular (RC) and double-stranded (DS) forms of HBV DNA are indicated. […] (T). […] Replicative intermediates were analyzed by Southern blotting. Double-stranded (DS) and single-stranded (SS) forms of HBV genomic DNA are indicated.
# One limitation of using stable cell lines, such as HepG2 2.2.15 cells, for evaluating the efficacy of an antiviral on HBV replication is that the magnitude of virus replication is at a static level predetermined by the number of integrated HBV genome copies. […] Cultures were fed fresh 3TC supplemented medium daily. After 3 days of treatment (4 days p.i.). DNA was extracted from the medium of treated and untreated control cultures and analyzed by Southern Blotting. Autoradiograms shown indicate different elngths of time of exposure of the blot to film: 1 hour (A), 2 hours (B), 4 hours (C), and 8 hours (D). Relaxed circular (RC) and double-stranded (DS) forms of HBV DNA are indicated. The largest reduction of extracellular HBV DNA (>99% reduction after six days of treatment) occurred in cells infected with 25 pfu of baculovirus, the lowest multiplicity tested. […] However, it is also important to note that even a 96% reduction in HBV replication still allowed high levels of HBV virions to be secreted from 3TC-treated cells which were replicating very high levels of HBV (i.e. cells infected with HBV baculovirus at a high moi).
# (§2) HepG2 cells were seeded at approximately 20% to 40% confluency and then were grown for 16 to 24 hours before infection. On the day of infection, duplicate plates of cells were trypsinized, and viable cell number was determined with a hemocytometer using Trypan blue exclusion. Average cell counts were calculated and used to determine the volume of high-titer viral stock necessary to infect cells at the indicated moi. Baculovirus was diluted into MEM-FBS to achieve the appropriate moi using volumes of 1.0 and 0.25 mL to infect 100-mm and 35-mm dishes, respectively. Baculovirus was adsorbed to HepG2 cells for one hour at 37° C. with gentle rocking every 15 minutes to ensure that the inoculum was evenly distributed. The inoculum was then aspirated and HepG2 cells were washed two times with phosphate-buffered saline and refed MEM-FBS.
# Conditioned medium was collected from HepG2 cells and subjected to centrifugation at 6,000 g for 5 minutes to I5- remove cellular debris. HBV particles were precipitated with 10% PEG 8000 and were concentrated by centrifugation at 12,000×g. Viral pellets were resuspended in 1 mL of MEM-FBS and divided into two aliquots. One set of aliquots was treated with 750 μg/mL Pronase for one hour and then with 500 mg/mL DNase 1 for one hour. Both sets of aliquots were then digested with Proteinase K, and extracted with phenol and chloroform. DNA was precipitated with 0.1 volume of 3 mol/L sodium acetate and 1 volume of isopropanol. Ten micrograms of transfer RNA was added as a carrier during precipitation. Pellets were resuspended in 25 μL of TE and digested with 0.5 mg/mL RNase for 1 hour. DNA was then analyzed by electrophoresis and Southern blotting.
# (§3) 3TC was a gift of BioChem Therapeutic Inc. (Laval, Quebec, Canada). […] Medium containing 3TC was prepared daily as needed using fresh aliquots of 3TC.
# HBV [2] = assay: Intracellular HBV replicative intermediates in HBV baculovirus infected HepG2 cells (Southern blot, densitometry); conditions: 50 pfu/cell
# Procedure: On the indicated days (3, 6, and 9 days of drug treatment) HBV replication in HepG2 cultures was assessed by examining extracellular HBV DNA and intracellular replicative intermediates.
# as §1, §2
# HBV core particles were isolated from the cytoplasmic fraction of HepG2 cells lysed in 0.5% Np40. Cytoplasmic extracts were adjusted to 10 mmol/L MgCl2 and unprotected DNA was removed by an incubation with 500 μg/mL DNasel for 1 hour at 37° C. Samples were then adjusted to 50 mmol/L ethylenediaminetetraacetic acid, 50 mmol/L Tris, 0.5% sodium dodecyl sulfate, and digested with 500 μg/mL. Proteinase K for 1.5 hours at 37° C. Following sequential phenol and chloroform extractions, nucleic acids were recovered by ethanol precipitation. Nucleic acids were resuspended in 50 μL TE (10 mmol/L Tris, 1 mmol/L ethylenediaminetetraacetic acid), normalized by OD260, and digested with 100 μg/mL RNase (Boehringer Mannheim, Indianapolis, Ind.) for one hour at 37° C. before analysis by electrophoresis and Southern blotting. A Molecular Dynamics (Sunnyvale, Calif.) 100A laser densitometer equipped with Quantity One software (Protein Databases Inc., Huntington Station, N.Y.) was used to analyze suitable exposures of Southern blots.
# as §3
# HBV [3] = assay: Extracellular HBV DNA secreted by HBV baculovirus infected HepG2 cells (Southern blot, densitometry); conditions: 0.2 μM 3TC, 10 day treatment
structure (smiles),measurement,setting,value
"Nc1ccn([C@@H]2CS[C@H](CO)O2)c(=O)n1 [3TC, (−)-2′-dideoxy-3′-thiacytidine]","extracellular HBV DNA, % Untreated Control","HBV [1]; 0.02 μM 3TC, P (from 16 h prior to infection), day 4 p.i. (3 days treatment), 50 pfu/cell",69.8 % Untreated Control
same,"extracellular HBV DNA, % Untreated Control","HBV [1]; 0.02 μM 3TC, P (from 16 h prior to infection), day 7 p.i. (6 days treatment), 50 pfu/cell",60.6 % Untreated Control
same,"extracellular HBV DNA, % Untreated Control","HBV [1]; 0.02 μM 3TC, P (from 16 h prior to infection), day 10 p.i. (9 days treatment), 50 pfu/cell",38.1 % Untreated Control
same,"extracellular HBV DNA, % Untreated Control","HBV [1]; 0.02 μM 3TC, T (from 24 h p.i.), day 4 p.i. (3 days treatment), 50 pfu/cell",68.1 % Untreated Control
same,"extracellular HBV DNA, % Untreated Control","HBV [1]; 0.02 μM 3TC, T (from 24 h p.i.), day 7 p.i. (6 days treatment), 50 pfu/cell",39.6 % Untreated Control
same,"extracellular HBV DNA, % Untreated Control","HBV [1]; 0.02 μM 3TC, T (from 24 h p.i.), day 10 p.i. (9 days treatment), 50 pfu/cell",33.0 % Untreated Control
same,reduction of extracellular HBV DNA,"HBV [1]; 0.02 μM 3TC, nine day treatment, moi 50 pfu/cell",67%
same,reduction of HBV DNA in the medium,"HBV [1]; 0.02 μM 3TC, three days of treatment, moi 50 pfu/cell",about 30%
same,"extracellular HBV DNA, % Untreated Control","HBV [1]; 0.2 μM 3TC from 24 h p.i., moi 25, day 4 p.i. (3 days treatment)",4.8 % Untreated Control
same,"extracellular HBV DNA, % Untreated Control","HBV [1]; 0.2 μM 3TC from 24 h p.i., moi 25, day 7 p.i. (6 days treatment)",0.5 % Untreated Control
same,"extracellular HBV DNA, % Untreated Control","HBV [1]; 0.2 μM 3TC from 24 h p.i., moi 50, day 4 p.i. (3 days treatment)",13.9 % Untreated Control
same,"extracellular HBV DNA, % Untreated Control","HBV [1]; 0.2 μM 3TC from 24 h p.i., moi 50, day 7 p.i. (6 days treatment)",3.5 % Untreated Control
same,"extracellular HBV DNA, % Untreated Control","HBV [1]; 0.2 μM 3TC from 24 h p.i., moi 100, day 4 p.i. (3 days treatment)",27.2 % Untreated Control
same,"extracellular HBV DNA, % Untreated Control","HBV [1]; 0.2 μM 3TC from 24 h p.i., moi 100, day 7 p.i. (6 days treatment)",3.4 % Untreated Control
same,"extracellular HBV DNA, % Untreated Control","HBV [1]; 0.2 μM 3TC from 24 h p.i., moi 200, day 4 p.i. (3 days treatment)",20.7 % Untreated Control
same,"extracellular HBV DNA, % Untreated Control","HBV [1]; 0.2 μM 3TC from 24 h p.i., moi 200, day 7 p.i. (6 days treatment)",2.2 % Untreated Control
same,"extracellular HBV DNA, % Untreated Control","HBV [1]; 0.2 μM 3TC from 24 h p.i., moi 400, day 4 p.i. (3 days treatment)",18.7 % Untreated Control
same,"extracellular HBV DNA, % Untreated Control","HBV [1]; 0.2 μM 3TC from 24 h p.i., moi 400, day 7 p.i. (6 days treatment)",4.7 % Untreated Control
same,"extracellular HBV DNA, % Untreated Control","HBV [1]; 0.2 μM 3TC, P (from 16 h prior to infection), day 4 p.i. (3 days treatment), 50 pfu/cell",10.1 % Untreated Control
same,"extracellular HBV DNA, % Untreated Control","HBV [1]; 0.2 μM 3TC, P (from 16 h prior to infection), day 7 p.i. (6 days treatment), 50 pfu/cell",2.4 % Untreated Control
same,"extracellular HBV DNA, % Untreated Control","HBV [1]; 0.2 μM 3TC, P (from 16 h prior to infection), day 10 p.i. (9 days treatment), 50 pfu/cell",0.8 % Untreated Control
same,"extracellular HBV DNA, % Untreated Control","HBV [1]; 0.2 μM 3TC, T (from 24 h p.i.), day 4 p.i. (3 days treatment), 50 pfu/cell",13.4 % Untreated Control
same,"extracellular HBV DNA, % Untreated Control","HBV [1]; 0.2 μM 3TC, T (from 24 h p.i.), day 7 p.i. (6 days treatment), 50 pfu/cell",5.6 % Untreated Control
same,"extracellular HBV DNA, % Untreated Control","HBV [1]; 0.2 μM 3TC, T (from 24 h p.i.), day 10 p.i. (9 days treatment), 50 pfu/cell",1.9 % Untreated Control
same,reduction of extracellular HBV DNA,"HBV [1]; 0.2 μM 3TC, six days of treatment, 25 pfu of baculovirus",> 99%
same,average reduction of extracellular HBV DNA,"HBV [1]; 0.2 μM 3TC, six days of treatment, multiplicities 50 to 400 pfu/cell",greater than 96%
same,"extracellular HBV DNA, % Untreated Control","HBV [1]; 2.0 μM 3TC, P (from 16 h prior to infection), day 4 p.i. (3 days treatment), 50 pfu/cell",1.3 % Untreated Control
same,"extracellular HBV DNA, % Untreated Control","HBV [1]; 2.0 μM 3TC, P (from 16 h prior to infection), day 7 p.i. (6 days treatment), 50 pfu/cell",1.2 % Untreated Control
same,"extracellular HBV DNA, % Untreated Control","HBV [1]; 2.0 μM 3TC, P (from 16 h prior to infection), day 10 p.i. (9 days treatment), 50 pfu/cell",0.8 % Untreated Control
same,"extracellular HBV DNA, % Untreated Control","HBV [1]; 2.0 μM 3TC, T (from 24 h p.i.), day 4 p.i. (3 days treatment), 50 pfu/cell",2.4 % Untreated Control
same,"extracellular HBV DNA, % Untreated Control","HBV [1]; 2.0 μM 3TC, T (from 24 h p.i.), day 7 p.i. (6 days treatment), 50 pfu/cell",2.4 % Untreated Control
same,"extracellular HBV DNA, % Untreated Control","HBV [1]; 2.0 μM 3TC, T (from 24 h p.i.), day 10 p.i. (9 days treatment), 50 pfu/cell",0.8 % Untreated Control
same,reduction of extracellular HBV DNA,"HBV [1]; 2.0 μM 3TC, nine days of treatment, moi 50 pfu/cell",more than 99%
same,"intracellular HBV replicative intermediates, % Untreated Control","HBV [2]; 0.02 μM 3TC, P (from 16 h prior to infection), day 4 p.i. (3 days treatment)",82.5 % Untreated Control
same,"intracellular HBV replicative intermediates, % Untreated Control","HBV [2]; 0.02 μM 3TC, P (from 16 h prior to infection), day 7 p.i. (6 days treatment)",100 % Untreated Control
same,"intracellular HBV replicative intermediates, % Untreated Control","HBV [2]; 0.02 μM 3TC, P (from 16 h prior to infection), day 10 p.i. (9 days treatment)",68.2 % Untreated Control
same,"intracellular HBV replicative intermediates, % Untreated Control","HBV [2]; 0.02 μM 3TC, T (from 24 h p.i.), day 4 p.i. (3 days treatment)",57.4 % Untreated Control
same,"intracellular HBV replicative intermediates, % Untreated Control","HBV [2]; 0.02 μM 3TC, T (from 24 h p.i.), day 7 p.i. (6 days treatment)",100 % Untreated Control
same,"intracellular HBV replicative intermediates, % Untreated Control","HBV [2]; 0.02 μM 3TC, T (from 24 h p.i.), day 10 p.i. (9 days treatment)",59.6 % Untreated Control
same,"intracellular HBV replicative intermediates, % Untreated Control","HBV [2]; 0.2 μM 3TC, P (from 16 h prior to infection), day 4 p.i. (3 days treatment)",41.7 % Untreated Control
same,"intracellular HBV replicative intermediates, % Untreated Control","HBV [2]; 0.2 μM 3TC, P (from 16 h prior to infection), day 7 p.i. (6 days treatment)",20.0 % Untreated Control
same,"intracellular HBV replicative intermediates, % Untreated Control","HBV [2]; 0.2 μM 3TC, P (from 16 h prior to infection), day 10 p.i. (9 days treatment)",6.5 % Untreated Control
same,"intracellular HBV replicative intermediates, % Untreated Control","HBV [2]; 0.2 μM 3TC, T (from 24 h p.i.), day 4 p.i. (3 days treatment)",35.0 % Untreated Control
same,"intracellular HBV replicative intermediates, % Untreated Control","HBV [2]; 0.2 μM 3TC, T (from 24 h p.i.), day 7 p.i. (6 days treatment)",16.7 % Untreated Control
same,"intracellular HBV replicative intermediates, % Untreated Control","HBV [2]; 0.2 μM 3TC, T (from 24 h p.i.), day 10 p.i. (9 days treatment)",6.7 % Untreated Control
same,"intracellular HBV replicative intermediates, % Untreated Control","HBV [2]; 2.0 μM 3TC, P (from 16 h prior to infection), day 4 p.i. (3 days treatment)",8.2 % Untreated Control
same,"intracellular HBV replicative intermediates, % Untreated Control","HBV [2]; 2.0 μM 3TC, P (from 16 h prior to infection), day 7 p.i. (6 days treatment)",7.1 % Untreated Control
same,"intracellular HBV replicative intermediates, % Untreated Control","HBV [2]; 2.0 μM 3TC, P (from 16 h prior to infection), day 10 p.i. (9 days treatment)",1.3 % Untreated Control
same,"intracellular HBV replicative intermediates, % Untreated Control","HBV [2]; 2.0 μM 3TC, T (from 24 h p.i.), day 4 p.i. (3 days treatment)",12.1 % Untreated Control
same,"intracellular HBV replicative intermediates, % Untreated Control","HBV [2]; 2.0 μM 3TC, T (from 24 h p.i.), day 7 p.i. (6 days treatment)",8.5 % Untreated Control
same,"intracellular HBV replicative intermediates, % Untreated Control","HBV [2]; 2.0 μM 3TC, T (from 24 h p.i.), day 10 p.i. (9 days treatment)",2.1 % Untreated Control
same,reduction in extracellular DNA,HBV [3],~98%

# Reference: patent US6610471B1, “Methods and compositions to investigate infection by hepatitis B virus and agents to prevent and treat the infection” (priority 1998, dated 2003)
